Measured values reported in ChEMBL document CHEMBL3745592, “Synthesis of novel coumarin appended bis(formylpyrazole) derivatives: Studies on their antimicrobial and antioxidant activities” (Bioorg Med Chem Lett, 2016).
Converted amounts (≈) assume the structure as drawn.

Assays:
[1] = Antioxidant activity assessed as DPPH free radical scavenging activity at 75 ug/ml after 20 mins by UV-vis spectrophotometry analysis; assay type: physicochemical
[2] = Antioxidant activity assessed as DPPH free radical scavenging activity at 100 ug/ml after 20 mins by UV-vis spectrophotometry analysis; assay type: physicochemical
[3] = Antioxidant activity assessed as hydroxyl radical scavenging activity at 75 ug/ml after 60 mins; assay type: physicochemical; details: 1 h
[4] = Antioxidant activity assessed as hydroxyl radical scavenging activity at 100 ug/ml after 60 mins; assay type: physicochemical; details: 1 h
Staphylococcus aureus = test: Antibacterial activity against Staphylococcus aureus assessed as growth inhibition incubated for 24 hrs at 37 degC by broth dilution method; assay type: functional
Escherichia coli = test: Antibacterial activity against Escherichia coli assessed as growth inhibition incubated for 24 hrs at 37 degC by broth dilution method; assay type: functional
Pseudomonas aeruginosa = test: Antibacterial activity against Pseudomonas aeruginosa assessed as growth inhibition incubated for 24 hrs at 37 degC by broth dilution method; assay type: functional
Aspergillus niger = test: Antifungal activity against Aspergillus niger assessed as growth inhibition incubated for 72 hrs at 37 degC by broth dilution method; assay type: functional
Aspergillus flavus = test: Antifungal activity against Aspergillus flavus assessed as growth inhibition incubated for 72 hrs at 37 degC by broth dilution method; assay type: functional
Candida albicans = test: Antifungal activity against Candida albicans assessed as growth inhibition incubated for 72 hrs at 37 degC by broth dilution method; assay type: functional
[5] = Antioxidant activity assessed as DPPH free radical scavenging activity at 25 ug/ml after 20 mins by UV-vis spectrophotometry analysis; assay type: physicochemical
[6] = Antioxidant activity assessed as DPPH free radical scavenging activity at 50 ug/ml after 20 mins by UV-vis spectrophotometry analysis; assay type: physicochemical

Compound	inhibition (INH) [1] [%]	inhibition (INH) [2] [%]	inhibition (INH) [3] [%]	inhibition (INH) [4] [%]	MIC90 (Staphylococcus aureus) [µg/mL]	MIC90 (Escherichia coli) [µg/mL]	MIC90 (Pseudomonas aeruginosa) [µg/mL]	MIC90 (Aspergillus niger) [µg/mL]	MIC90 (Aspergillus flavus) [µg/mL]	MIC90 (Candida albicans) [µg/mL]	inhibition (INH) [5] [%]	inhibition (INH) [6] [%]
COc1ccc(-n2cc(C=O)c(-c3cc4c(C)cc(=O)oc4c(-c4nn(-c5ccc(OC)cc5)cc4C=O)c3O)n2)cc1	21.14	24.59	29.4	35.13	50 (≈ 86.7 µM)	50 (≈ 86.7 µM)	12.5 (≈ 21.7 µM)	25 (≈ 43.4 µM)	50 (≈ 86.7 µM)	50 (≈ 86.7 µM)	14.2	17.87
Cc1cccc(-n2cc(C=O)c(-c3cc4c(C)cc(=O)oc4c(-c4nn(-c5cccc(C)c5)cc4C=O)c3O)n2)c1	18.78	24.02	26.49	30.1	75 (≈ 138 µM)	50 (≈ 91.8 µM)	25 (≈ 45.9 µM)	75 (≈ 138 µM)	75 (≈ 138 µM)	50 (≈ 91.8 µM)	13.24	16.4
Cc1cc(=O)oc2c(-c3nn(-c4ccccc4)cc3C=O)c(O)c(-c3nn(-c4ccccc4)cc3C=O)cc12	20.08	23.6	25.9	30.04	50 (≈ 96.8 µM)	50 (≈ 96.8 µM)	50 (≈ 96.8 µM)	50 (≈ 96.8 µM)	75 (≈ 145 µM)	50 (≈ 96.8 µM)	15.1	17.34
COc1ccc(N/N=C(\C)c2cc3c(C)cc(=O)oc3c(/C(C)=N/Nc3ccc(OC)cc3)c2O)cc1	19.7	22.4	26.36	33.01	25 (≈ 49.9 µM)	12.5 (≈ 25 µM)	12.5 (≈ 25 µM)	12.5 (≈ 25 µM)	25 (≈ 49.9 µM)	50 (≈ 99.9 µM)	14.57	17.17
C/C(=N\Nc1ccc(F)cc1)c1cc2c(C)cc(=O)oc2c(/C(C)=N/Nc2ccc(F)cc2)c1O	14.01	17.45	17.33	26.6	75 (≈ 157 µM)	50 (≈ 105 µM)	50 (≈ 105 µM)	50 (≈ 105 µM)	75 (≈ 157 µM)	75 (≈ 157 µM)	8.49	11.69
C/C(=N\Nc1cccc(C)c1)c1cc2c(C)cc(=O)oc2c(/C(C)=N/Nc2cccc(C)c2)c1O	13.97	17.29	24.22	30.78	50 (≈ 107 µM)	50 (≈ 107 µM)	25 (≈ 53.4 µM)	75 (≈ 160 µM)	50 (≈ 107 µM)	50 (≈ 107 µM)	10.92	11.8
C/C(=N\Nc1ccc(Cl)cc1)c1cc2c(C)cc(=O)oc2c(/C(C)=N/Nc2ccc(Cl)cc2)c1O	17.41	20.62	23.49	30.75	50 (≈ 98.2 µM)	50 (≈ 98.2 µM)	25 (≈ 49.1 µM)	25 (≈ 49.1 µM)	50 (≈ 98.2 µM)	50 (≈ 98.2 µM)	10.73	14.75
Cc1ccc(-n2cc(C=O)c(-c3cc4c(C)cc(=O)oc4c(-c4nn(-c5ccc(C)cc5)cc4C=O)c3O)n2)cc1	20.75	24.56	27.07	31.48	75 (≈ 138 µM)	50 (≈ 91.8 µM)	25 (≈ 45.9 µM)	50 (≈ 91.8 µM)	75 (≈ 138 µM)	50 (≈ 91.8 µM)	16	17.28
Cc1cc(=O)oc2c(-c3nn(-c4ccc(Cl)cc4)cc3C=O)c(O)c(-c3nn(-c4ccc(Cl)cc4)cc3C=O)cc12	20.63	23.61	24.77	32.07	50 (≈ 85.4 µM)	25 (≈ 42.7 µM)	25 (≈ 42.7 µM)	50 (≈ 85.4 µM)	50 (≈ 85.4 µM)	100 (≈ 171 µM)	15.58	17.55
C/C(=N\Nc1ccccc1)c1cc2c(C)cc(=O)oc2c(/C(C)=N/Nc2ccccc2)c1O	19.35	22.22	24.36	29.65	50 (≈ 114 µM)	25 (≈ 56.8 µM)	25 (≈ 56.8 µM)	50 (≈ 114 µM)	50 (≈ 114 µM)	50 (≈ 114 µM)	15.03	16.96
Cc1cc(=O)oc2c(-c3nn(-c4ccc(F)cc4)cc3C=O)c(O)c(-c3nn(-c4ccc(F)cc4)cc3C=O)cc12	17.69	19.44	21.27	29.47	75 (≈ 136 µM)	75 (≈ 136 µM)	50 (≈ 90.5 µM)	75 (≈ 136 µM)	75 (≈ 136 µM)	100 (≈ 181 µM)	11.62	14.93
C/C(=N\Nc1ccc(C)cc1)c1cc2c(C)cc(=O)oc2c(/C(C)=N/Nc2ccc(C)cc2)c1O	19.43	22.45	25.54	30.52	25 (≈ 53.4 µM)	25 (≈ 53.4 µM)	25 (≈ 53.4 µM)	50 (≈ 107 µM)	25 (≈ 53.4 µM)	50 (≈ 107 µM)	14.29	16.65
O=C1O[C@H]([C@@H](O)CO)C(O)=C1O [ASCORBIC ACID]	21.98	24.25	–	–	–	–	–	–	–	–	15.08	16.87
COc1ccc(O)c(C(C)(C)C)c1.COc1ccc(O)cc1C(C)(C)C [BUTYLATED HYDROXYANISOLE]	–	–	25.58	32.03	–	–	–	–	–	–	–	–
O=C(O)c1cn(C2CC2)c2cc(N3CCNCC3)c(F)cc2c1=O [CIPROFLOXACIN]	–	–	–	–	25 (≈ 75.4 µM)	25 (≈ 75.4 µM)	12.5 (≈ 37.7 µM)	–	–	–	–	–
OC(Cn1cncn1)(Cn1cncn1)c1ccc(F)cc1F [FLUCONAZOLE]	–	–	–	–	–	–	–	25 (≈ 81.6 µM)	25 (≈ 81.6 µM)	50 (≈ 163 µM)	–	–
